Assay: Peroxide value of liquid crystal former according to type of stabilizer
Format: physicochemical
Details: 0.3 g stabilizer in 3 g safflower oil, castor oil, cottonseed oil or oleic acid; 60° C. for two weeks
Experimental: 0.3 g of each of tocopherol, ViC_palmitate, mannitol, and ViC_Na was added as stabilizers to 3 g of each of safflower oil, castor oil, cottonseed oil, and oleic acid. After the resulting mixture was heated at 45 to 60° C. after DI treatment, it was cooled to room temperature and left to stand for 3 hours.
The degree of rancidity was evaluated by allowing the mixture to stand under harsh conditions of 60° C. for two weeks to measure the peroxide value of the liquid crystal former.
In order to measure the peroxide value, 0.3 g of the sample was weighed into a 300-ml Erlenmeyer flask, and then 30 ml of a solution of chloroform:glacial acetic acid (2:3) was added thereto. After a temporary dark place was created with silver foil paper, 1 ml of a KI saturated solution was added, and the resulting mixture was shaken vigorously, and then left to stand in the dark place for 5 minutes. Thereafter, 30 ml of distilled water was again added thereto, 1 ml of a 1% starch solution was added thereto, and then the resulting mixture was vigorously mixed. Thereafter, the mixture was titrated with a 0.01 N-Na2S2O3 standard solution while stirring with a magnetic stirrer, and the end point was set to the time when the dark blue color of the starch disappeared. Thereafter, the peroxide value of the sample was determined using the following equation. […]

## CCCCCCCCCCCCCCCC(=O)OC[C@H](O)[C@H]1OC(=O)C(O)=C1O [ViC_palmitate, ascorbic palmitate]
  peroxide value of the liquid crystal former: the peroxide values of all the liquid crystal formers used in this test example were low

## tocopherol
  peroxide value of the liquid crystal former: the peroxide value is higher than when no stabilizer is used

From patent US20240180865A1, “SUSTAINED-RELEASE LIPID PRE-CONCENTRATE” (TIONLAB THERAPEUTICS, priority 2021, published 2024)
